From patent publication EP0023569A1, “Derivatives of carboxylic acids, their preparation and medicaments containing them” (Dr. Karl Thomae GmbH, priority 1979, dated 1981)

Test system: weiblichen und männlichen Mäusen
Assay: Acute toxicity in mice after a single oral dose
Format: in vivo
Conditions: observation at least 7 days; for orientierende Toxizität: single dose p.o., suspension in 1% methylcellulose
Source text: Bei weiblichen und männlichen Mäusen eigener Zucht mit dem Gewicht von 20-26 g wurde die toxische Wirkung der Substanzen nach oraler Gabe (Suspension in 1%iger Methylcellulose) einer einmaligen Dosis bei einer Nachbeobachtungszeit von mindestens 7 Tagen geprüft. Die nachfolgende Tabelle enthält die gefundenen Werte: […]

[1] = single dose of 1 000 mg/kg p.o.
[2] = single dose of 2 000 mg/kg p.o.

For `COC(=O)c1ccc(CCNC(=O)c2cc(Cl)ccc2N2CC(C)CC(C)C2)cc1` (centres unmarked) [H, 4-[2-(5-Chlor-2-(3,5-dimethyl-piperidino)-benzoylamino)-äthy]benzoesäure-methylester], the Tieren gestorben [1] was 0 von 6 and the “orientierende Toxizität” value was > 1 000 mg/kg.

`CN(C)c1ccc(Br)cc1C(=O)NCCc1ccc(C(=O)O)cc1` [B, 4-[2-(5-Brom-2-dimethylamino-benzoylamino)-äthyl]benzoesäure] was tested, and the Tieren gestorben [1] was 0 von 5 and the “orientierende Toxizität” value was > 1 000 mg/kg.

In the case of `CCOC(=O)c1ccc(CCNC(=O)c2cc(Br)ccc2N2CCCCCCC2)cc1` [V, 4-[2-(5-Brom-2-heptamethylenimino-benzoylamino)-äthyl]benzoesäure-äthylester], the Tieren gestorben [1] is reported as 0 von 10 and the “orientierende Toxizität” value is reported as > 1 000 mg/kg.

In the case of `O=C(O)c1ccc(CCNC(=O)c2cc(Cl)ccc2N2CCCCC2)cc1` [D, 4-[2-(5-Chlor-2-piperidino-benzoylamino)-äthy]benzoesäure], the Tieren gestorben [2] is reported as 0 von 6 and the “orientierende Toxizität” value is reported as > 2 000 mg/kg.

For `O=C(O)c1ccc(CCNC(=O)c2cc(Br)ccc2N2CCCCCCC2)cc1` [W, 4-[2-(5-Brom-2-heptamethylenimino-benzoylamino)-äthyl]-benzoesäure], the Tieren gestorben [1] was 0 von 6 and the “orientierende Toxizität” value was > 1 000 mg/kg.

With `O=C(O)c1ccc(CCNC(=O)c2cc(Cl)ccc2N2CCCCCC2)cc1` [O, 4-[2-(5-Chlor-2-hexamethylenimino-benzoylamino)-äthyl]-benzoesäure] the Tieren gestorben [1] was 0 von 10 and the “orientierende Toxizität” value was > 1 000 mg/kg.

In the case of `O=C(O)c1ccc(CCNC(=O)c2cc(Cl)ccc2N2CCCCCCCC2)cc1` [X, 4-[2-(5-Chlor-2-octamethylenimino-benzoylamino)-äthyl]-benzoesäure], the Tieren gestorben [1] is reported as 0 von 6 and the “orientierende Toxizität” value is reported as > 1 000 mg/kg.

For `CN(C)c1ccc(Cl)cc1C(=O)NCCc1ccc(C(=O)O)cc1` [A, 4-[2-(5-Chlor-2-dimethylamino-benzoylamino)-äthyl]benzoe-säure], the Tieren gestorben [2] was 0 von 6 and the “orientierende Toxizität” value was > 2 000 mg/kg.

In the case of `CC1CN(c2ccc(Cl)cc2C(=O)NCCc2ccc(C(=O)O)cc2)CC(C)O1` (centres unmarked) [T, 4-[-(5-Chlor-2-(2,6-dimethyl-morpholino)-benzoylamino)-äthyl]benzoesäure], the Tieren gestorben [1] is reported as 0 von 10 and the “orientierende Toxizität” value is reported as > 1 000 mg/kg.

`O=C(O)c1cc(Cl)ccc1N1CCC2(CC1)OCCO2` [KK, 5-Chlor-2-(1,4-dioxa-8-aza-spiro[4,5]decan-8-yl)-benzoe-säure] was tested, and the Tieren gestorben [2] was 0 von 10 and the “orientierende Toxizität” value was > 2 000 mg/kg.
